Reference: ChEMBL document CHEMBL1134433, “Discovery of a novel CCR3 selective antagonist” (Bioorg Med Chem Lett, 2001)

How the values were obtained:
Format in all cases: cell-based
[1] = target: T1, C-C chemokine receptor type 1 (Homo sapiens, UniProt P32246); test: Concentration required for 50% inhibition of [125I]eotaxin binding to human CCR1 receptor expressed in CHO cells
T1 sequence (P32246 whole entry): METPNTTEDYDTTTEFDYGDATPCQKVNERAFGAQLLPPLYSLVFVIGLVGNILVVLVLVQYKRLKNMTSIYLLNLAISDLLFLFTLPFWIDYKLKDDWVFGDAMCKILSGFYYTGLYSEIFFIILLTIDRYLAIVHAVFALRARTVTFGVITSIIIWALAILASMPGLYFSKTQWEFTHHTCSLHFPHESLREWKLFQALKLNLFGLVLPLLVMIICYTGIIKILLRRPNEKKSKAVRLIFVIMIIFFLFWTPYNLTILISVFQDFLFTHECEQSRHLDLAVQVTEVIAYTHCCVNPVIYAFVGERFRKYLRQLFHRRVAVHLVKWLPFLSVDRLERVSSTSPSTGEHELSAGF

[2] = target: T2, C-C chemokine receptor type 3 (Homo sapiens, UniProt P51677); test: Concentration required for 50% inhibition of [125I]eotaxin binding to human CCR3 receptor expressed in CHO cells
T2 sequence (P51677 whole entry): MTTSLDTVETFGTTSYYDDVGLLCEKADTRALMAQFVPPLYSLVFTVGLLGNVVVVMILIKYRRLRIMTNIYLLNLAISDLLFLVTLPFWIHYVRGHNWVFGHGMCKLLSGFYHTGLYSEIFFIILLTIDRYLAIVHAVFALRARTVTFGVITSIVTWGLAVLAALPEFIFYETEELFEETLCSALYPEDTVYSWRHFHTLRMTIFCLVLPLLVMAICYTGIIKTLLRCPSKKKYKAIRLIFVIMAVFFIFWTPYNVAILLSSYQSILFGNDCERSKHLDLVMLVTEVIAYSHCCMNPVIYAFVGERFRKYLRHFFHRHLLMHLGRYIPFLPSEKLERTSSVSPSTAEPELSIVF

[3] = target: T3, C-C chemokine receptor type 3 (Homo sapiens) (UniProt P51677); test: Percent inhibition of [125I]eotaxin binding to human CCR3 receptor expressed in CHO cells at 1 uM
T3 sequence (whole entry): T2 sequence (P51677 whole entry)

Row | IC50 [1] [µM] | IC50 [2] [µM] | inhibition [3] [%] | Structure (SMILES)
1 | 0.45 | 0.032 | – | O=C(CSc1nc2ccccc2s1)NC1CCN(Cc2ccc(Cl)c(Cl)c2)CC1
2 | 1.9 | 0.0023 | – | Nc1ccc2nc(SCC(=O)NC3CCN(Cc4ccc(Cl)c(Cl)c4)CC3)sc2c1
3 | – | 1 | – | O=C(CSc1nc2ccccc2s1)NCC1CCCN(CC2CCCCC2)C1 (stereo not given)
4 | 3.6 | 0.02 | – | CCOc1ccc2nc(SCC(=O)NC3CCN(Cc4ccc(Cl)c(Cl)c4)CC3)sc2c1
5 | 0.26 | 0.079 | – | O=C(CSc1nc2ccccc2s1)NC1CCN(Cc2ccc(Cl)cc2)CC1
6 | > 10 | 0.28 | – | O=C(CSc1nc2ccccc2s1)NC1CCN(Cc2cccc(Cl)c2)CC1
7 | – | – | 0 | O=C(CSc1nc2ccccc2s1)NCC1CCCN(CCc2ccccc2)C1 (stereo not given)
8 | – | – | 15 | O=C(CSc1nc2ccccc2s1)NCC1CCCN(Cc2cccc3ccccc23)C1 (stereo not given)
9 | 7.1 | 0.75 | – | O=C(CSc1nc2ccccc2s1)NC1CCN(Cc2ccccc2)CC1
10 | – | – | 30 | CCCN1CCCC(CNC(=O)CSc2nc3ccccc3s2)C1 (stereo not given)
11 | > 10 | 0.048 | – | CCOC(=O)c1ccc2nc(SCC(=O)NC3CCN(Cc4ccc(Cl)c(Cl)c4)CC3)sc2c1
12 | – | – | 0 | O=C(CSc1nc2ccccc2s1)NCC1CCCN(Cc2cccnc2)C1 (stereo not given)
13 | – | – | 0 | O=C(CSc1nc2ccccc2s1)NCC1CCCN(Cc2nccs2)C1 (stereo not given)
14 | 4.2 | 1 | – | O=C(CSc1nc2ccccc2s1)NCC1CCCN(Cc2ccccc2)C1 (stereo not given)
15 | – | – | 0 | CCCCCN1CCCC(CNC(=O)CSc2nc3ccccc3s2)C1 (stereo not given)
16 | – | – | 5 | O=C(CSc1nc2ccccc2s1)NCC1CCCN(Cc2ccc3ccccc3c2)C1 (stereo not given)
17 | – | – | 0 | O=C(CSc1nc2ccccc2s1)NCC1CCCN(Cc2ccncc2)C1 (stereo not given)
